Source: PMC7915588, “Polyphyllin D Shows Anticancer Effect through a Selective Inhibition of Src Homology Region 2-Containing Protein Tyrosine Phosphatase-2 (SHP2)” (Molecules, 2021)

Key:
Assay in all cases: biochemical
Set-up in all cases: Fluorogenic phosphatase assay, DiFMUP hydrolysis by recombinant PTPs, initial velocity, Ex/Em 355/460 nm
Settings in all cases: read-out: Inhibition by 20 µM polyphyllin D (%)
[1] = biological target: T1, PTPN23 (HD-PTP) (Homo sapiens, UniProt Q9H3S7)
T1 construct: 1179-1463

[2] = biological target: T2, PTPN5 (STEP) (Homo sapiens, UniProt P54829)
T2 construct: 313-565
T2 sequence (P54829 1-565): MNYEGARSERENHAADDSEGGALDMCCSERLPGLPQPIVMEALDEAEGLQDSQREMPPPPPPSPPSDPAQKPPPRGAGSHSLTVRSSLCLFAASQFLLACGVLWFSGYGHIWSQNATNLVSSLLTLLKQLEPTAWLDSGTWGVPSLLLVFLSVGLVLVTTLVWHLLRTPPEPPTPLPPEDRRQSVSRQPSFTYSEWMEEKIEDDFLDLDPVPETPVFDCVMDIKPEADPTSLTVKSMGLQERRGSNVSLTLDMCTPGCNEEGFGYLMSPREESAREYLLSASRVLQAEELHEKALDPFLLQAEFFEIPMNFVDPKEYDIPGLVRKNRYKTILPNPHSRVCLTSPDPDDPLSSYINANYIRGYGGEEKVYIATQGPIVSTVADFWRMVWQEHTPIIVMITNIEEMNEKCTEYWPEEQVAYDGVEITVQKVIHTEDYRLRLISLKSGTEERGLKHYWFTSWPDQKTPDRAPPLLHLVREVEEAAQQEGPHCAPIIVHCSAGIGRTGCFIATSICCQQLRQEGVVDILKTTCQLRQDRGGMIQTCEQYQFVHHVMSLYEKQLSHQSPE

[3] = biological target: T3, SHP1 (Homo sapiens, UniProt P29350)
T3 construct: gene PTPN6

[4] = biological target: T4, PTPN9 (PTP-MEG2) (Homo sapiens, UniProt P43378)
T4 construct: 277-582
T4 sequence (P43378 1-593): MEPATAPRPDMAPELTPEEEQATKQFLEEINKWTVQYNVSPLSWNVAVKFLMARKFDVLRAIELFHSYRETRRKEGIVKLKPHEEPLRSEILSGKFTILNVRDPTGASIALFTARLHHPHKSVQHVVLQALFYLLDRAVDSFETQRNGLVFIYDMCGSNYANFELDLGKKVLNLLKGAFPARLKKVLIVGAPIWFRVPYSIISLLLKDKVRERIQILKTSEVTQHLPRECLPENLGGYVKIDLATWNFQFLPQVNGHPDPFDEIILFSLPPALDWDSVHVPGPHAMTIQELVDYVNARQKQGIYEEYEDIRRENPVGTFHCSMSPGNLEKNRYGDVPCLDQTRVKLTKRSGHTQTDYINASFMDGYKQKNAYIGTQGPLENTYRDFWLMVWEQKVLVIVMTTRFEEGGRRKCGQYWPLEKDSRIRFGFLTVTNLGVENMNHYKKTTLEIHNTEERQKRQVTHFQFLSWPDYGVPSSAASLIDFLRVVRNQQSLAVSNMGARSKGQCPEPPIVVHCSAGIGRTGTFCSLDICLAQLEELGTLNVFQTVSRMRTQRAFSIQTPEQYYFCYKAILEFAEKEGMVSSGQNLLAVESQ

[5] = biological target: T5, PTPN7 (HePTP) (Homo sapiens, UniProt P35236)
T5 construct: 1-360
T5 sequence (P35236 1-360): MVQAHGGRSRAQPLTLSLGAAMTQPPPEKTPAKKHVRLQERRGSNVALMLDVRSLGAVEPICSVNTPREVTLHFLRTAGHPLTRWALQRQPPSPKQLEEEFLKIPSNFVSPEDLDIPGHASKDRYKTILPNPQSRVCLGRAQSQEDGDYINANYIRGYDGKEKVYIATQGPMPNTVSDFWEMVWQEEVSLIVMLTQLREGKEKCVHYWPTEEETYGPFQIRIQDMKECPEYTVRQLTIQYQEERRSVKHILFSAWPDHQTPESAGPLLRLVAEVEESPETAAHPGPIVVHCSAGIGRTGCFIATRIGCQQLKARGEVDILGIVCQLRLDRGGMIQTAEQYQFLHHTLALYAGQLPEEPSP

T1 sequence (Q9H3S7 whole entry): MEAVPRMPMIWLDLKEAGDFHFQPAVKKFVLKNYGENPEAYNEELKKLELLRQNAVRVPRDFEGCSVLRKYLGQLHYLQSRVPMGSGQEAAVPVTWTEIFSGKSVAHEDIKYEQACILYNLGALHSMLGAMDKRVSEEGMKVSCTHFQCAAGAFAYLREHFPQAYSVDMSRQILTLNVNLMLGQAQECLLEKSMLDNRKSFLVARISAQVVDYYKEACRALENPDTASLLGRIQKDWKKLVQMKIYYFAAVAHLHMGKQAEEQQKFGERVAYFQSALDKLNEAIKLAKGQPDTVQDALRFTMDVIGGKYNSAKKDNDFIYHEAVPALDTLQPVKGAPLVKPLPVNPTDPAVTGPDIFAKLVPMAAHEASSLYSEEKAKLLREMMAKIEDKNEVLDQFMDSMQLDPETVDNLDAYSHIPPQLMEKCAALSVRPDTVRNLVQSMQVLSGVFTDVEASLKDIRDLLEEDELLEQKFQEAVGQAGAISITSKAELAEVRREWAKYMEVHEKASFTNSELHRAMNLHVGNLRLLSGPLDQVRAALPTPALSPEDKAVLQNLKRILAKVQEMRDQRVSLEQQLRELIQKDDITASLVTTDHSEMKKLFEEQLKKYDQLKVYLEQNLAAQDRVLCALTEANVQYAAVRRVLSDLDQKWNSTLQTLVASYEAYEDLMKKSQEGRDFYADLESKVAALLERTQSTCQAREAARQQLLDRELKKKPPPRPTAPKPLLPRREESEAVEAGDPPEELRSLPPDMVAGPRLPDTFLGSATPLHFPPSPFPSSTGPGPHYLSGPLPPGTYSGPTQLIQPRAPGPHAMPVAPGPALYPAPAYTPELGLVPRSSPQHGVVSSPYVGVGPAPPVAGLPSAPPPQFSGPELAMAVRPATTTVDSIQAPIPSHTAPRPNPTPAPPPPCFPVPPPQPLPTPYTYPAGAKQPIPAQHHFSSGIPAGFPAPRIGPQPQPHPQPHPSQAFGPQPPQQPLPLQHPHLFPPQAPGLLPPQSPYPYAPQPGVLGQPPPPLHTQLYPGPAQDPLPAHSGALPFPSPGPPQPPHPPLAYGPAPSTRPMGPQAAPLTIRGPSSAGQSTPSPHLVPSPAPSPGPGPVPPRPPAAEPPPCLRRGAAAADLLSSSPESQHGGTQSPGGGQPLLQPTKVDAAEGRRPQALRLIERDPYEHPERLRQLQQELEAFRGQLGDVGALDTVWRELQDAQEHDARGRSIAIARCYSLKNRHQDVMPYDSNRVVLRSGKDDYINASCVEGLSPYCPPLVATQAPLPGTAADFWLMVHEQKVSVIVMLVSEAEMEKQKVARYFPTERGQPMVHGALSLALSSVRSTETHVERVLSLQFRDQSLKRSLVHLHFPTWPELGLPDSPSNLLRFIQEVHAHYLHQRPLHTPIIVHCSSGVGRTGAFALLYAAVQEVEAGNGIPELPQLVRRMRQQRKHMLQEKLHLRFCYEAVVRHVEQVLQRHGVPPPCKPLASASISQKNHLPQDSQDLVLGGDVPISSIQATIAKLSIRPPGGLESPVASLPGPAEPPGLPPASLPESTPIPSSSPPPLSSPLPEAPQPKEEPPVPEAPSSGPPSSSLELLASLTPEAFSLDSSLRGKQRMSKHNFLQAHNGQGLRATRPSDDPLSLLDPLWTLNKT
T3 sequence (P29350 whole entry): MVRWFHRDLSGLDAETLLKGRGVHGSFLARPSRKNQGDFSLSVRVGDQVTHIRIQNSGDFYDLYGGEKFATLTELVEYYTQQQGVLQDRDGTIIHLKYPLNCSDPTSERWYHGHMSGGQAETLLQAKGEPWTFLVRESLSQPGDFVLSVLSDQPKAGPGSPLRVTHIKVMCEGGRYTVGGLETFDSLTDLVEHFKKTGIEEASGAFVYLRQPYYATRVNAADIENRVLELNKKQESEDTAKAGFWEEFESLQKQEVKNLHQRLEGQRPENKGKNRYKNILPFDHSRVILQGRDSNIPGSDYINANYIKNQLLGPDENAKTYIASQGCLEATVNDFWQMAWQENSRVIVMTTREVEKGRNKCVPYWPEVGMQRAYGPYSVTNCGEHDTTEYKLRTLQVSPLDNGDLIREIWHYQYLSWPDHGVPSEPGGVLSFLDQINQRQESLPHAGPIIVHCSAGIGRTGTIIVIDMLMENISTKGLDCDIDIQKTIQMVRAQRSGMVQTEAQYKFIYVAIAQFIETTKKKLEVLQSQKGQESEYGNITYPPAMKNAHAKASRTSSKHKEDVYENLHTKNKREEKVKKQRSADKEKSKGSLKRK

In the case of C[C@@H]1CC[C@@]2(OC1)O[C@H]1C[C@H]3[C@@H]4CC=C5C[C@@H](O[C@@H]6O[C@H](CO)[C@@H](O[C@@H]7O[C@@H](CO)[C@H](O)[C@H]7O)[C@H](O)[C@H]6O[C@@H]6O[C@@H](C)[C@H](O)[C@@H](O)[C@H]6O)CC[C@]5(C)[C@H]4CC[C@]3(C)[C@H]1[C@@H]2C [polyphyllin D], the inhibition at 20 µM [1] is reported as 0%, the inhibition at 20 µM [2] is reported as 0% and the inhibition at 20 µM [3] is reported as 0.1%. The inhibition at 20 µM [4] was 0% and the inhibition at 20 µM [5] was 9.2%.
